In the oligonucleotide strings, read from the 5' end, every base follows the letter of its sugar. An asterisk marks phosphorothioate; unmarked linkages are phosphodiester. Other units and linkages are bracketed, terminal groups are in braces. A string of capitals states the bases alone. e = 2'-O-(2-methoxyethyl) (MOE); [5mC] = 5-methylcytosine; d = 2'-deoxy (DNA)
Test system: human Factor 7 mRNA
Assay: Antisense inhibition of human Factor 7 mRNA in HepB3 cells, lipofectin, 50 nM, real-time RT-PCR
Format: cell-based
Conditions: for % Inhibition (human Factor 7 mRNA): 50 nM, ~24 h
In short: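 4,000 cells/well; ~24 h exposure; RNA isolated; probe set RTS 2927; normalised to RIBOGREEN® total RNA; % inhibition vs untreated.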

[1] = Example 1, HepB3 cells, lipofectin, relative to untreated control cells
[2] = HepB3 cells, gapmers targeted to nucleobases 11830 to 11869 of SEQ ID NO: 1 (Table 9)
[3] = HepB3 cells, lipofectin, 50 nM antisense oligonucleotide, approximately 24 hours, primer probe set RTS 2927, relative to untreated control
[4] = Example 4, HepB3 cells, lipofectin, relative to untreated control
[5] = Example 6 microwalk, nucleobases 15098 to 15122 of SEQ ID NO: 1, HepB3, lipofectin

| Substance | % Inhibition (human Factor 7 mRNA) [1] | % Inhibition of human Factor 7 mRNA levels [3] | also measured |
| --- | --- | --- | --- |
| 407646 (antisense eG*eG*eT*eG*eA*dT*dG*d[5mC]*dT*dT*d[5mC]*dT*dG*dA*dA*eT*eT*eG*eT*e[5mC]) [compound 407646] | 81% | – | – |
| 422235 (antisense eA*eT*dG*dG*dT*d[5mC]*dA*dG*dG*dG*d[5mC]*dT*dG*dG*dT*eT*eT*eT*eG*eG) [compound 422235] | – | – | % Inhibition of human Factor 7 mRNA levels [2]: 50% |
| 416554 (antisense eA*eA*eA*eG*eA*dT*d[5mC]*d[5mC]*d[5mC]*dA*d[5mC]*d[5mC]*dT*d[5mC]*dA*eA*eA*eG*eA*eG) [compound 416554] | – | 7% | – |
| 407952 (antisense eG*eG*eA*eT*e[5mC]*d[5mC]*dT*dG*dG*dG*dA*dG*d[5mC]*dT*dA*e[5mC]*eA*eG*e[5mC]*e[5mC]) [compound 407952] | 41% | – | – |
| 416533 (antisense eG*e[5mC]*eA*eT*eT*d[5mC]*dT*dG*dG*dA*d[5mC]*d[5mC]*d[5mC]*dA*dG*eA*eT*eG*eA*e[5mC]) [compound 416533] | – | 41% | – |
| 416428 (antisense e[5mC]*eT*eG*eG*eG*dT*dT*dA*d[5mC]*dG*dA*dA*dG*dA*d[5mC]*eT*eG*e[5mC]*eA*eG) [compound 416428] | – | 11% | – |
| 422173 (antisense e[5mC]*eT*eG*dG*d[5mC]*dT*dG*dA*dG*dG*dA*dG*dA*d[5mC]*dA*dA*dT*eG*eG*eT) [compound 422173] | – | – | % Inhibition of human Factor 7 mRNA levels [2]: 51% |
| 416461 (antisense eG*eA*eA*eG*e[5mC]*dG*d[5mC]*dA*d[5mC]*dG*dA*dA*dG*dG*d[5mC]*e[5mC]*eA*eG*e[5mC]*eG) [compound 416461] | – | 43% | – |
| 407640 (antisense eG*e[5mC]*eA*eT*eG*dA*dG*d[5mC]*dT*dT*dT*dT*dG*d[5mC]*dA*eG*e[5mC]*e[5mC]*eA*e[5mC]) [compound 407640] | 79% | – | – |
| 422191 (antisense eA*eG*e[5mC]*dG*d[5mC]*dG*dG*dA*dA*dG*dA*dA*dG*dG*dG*dA*d[5mC]*eG*eG*eA) [compound 422191] | – | – | % Inhibition (human Factor 7 mRNA) [4]: 27% |
| 416481 (antisense eA*eG*eA*eT*eG*dA*dT*dA*dA*dT*dG*dG*dA*dT*dA*eA*eG*eA*eA*e[5mC]) [compound 416481] | – | 15% | – |
| 407916 (antisense eG*eT*eG*eG*e[5mC]*d[5mC]*d[5mC]*dA*d[5mC]*dG*dG*dT*dT*dG*d[5mC]*eG*e[5mC]*eA*eG*e[5mC]) [compound 407916] | 53% | – | – |
| 407665 (antisense eG*eT*eT*eA*e[5mC]*dG*dA*dA*dG*dA*d[5mC]*dT*dG*dG*dG*eA*eA*eA*eT*eG) [compound 407665] | 29% | – | – |
| 416458 (antisense eG*eG*e[5mC]*eG*eG*dA*dG*d[5mC]*dA*dG*d[5mC]*dG*d[5mC]*dG*dA*eT*eG*eT*e[5mC]*eG) [compound 416458] | – | 29% | – |
| 407950 (antisense eA*eG*e[5mC]*eT*eT*d[5mC]*d[5mC]*dA*dT*dG*dT*dG*dA*dG*dG*eG*eT*eT*e[5mC]*eA) [compound 407950] | 58% | – | – |
| 422301 (antisense eG*eG*dA*dG*d[5mC]*d[5mC]*d[5mC]*dG*dA*dG*dT*dT*d[5mC]*dT*dG*e[5mC]*eA*eG*eG*eA) [compound 422301] | – | – | % Inhibition of human Factor 7 mRNA levels (HepB3 cells, gapmers (5-10-5, 3-14-3, 2-13-5 MOE) targeted to nucleobases 4868 to 4899 of SEQ ID NO: 1): 67% |
| 407915 (antisense eG*eT*eT*eG*e[5mC]*dG*d[5mC]*dA*dG*d[5mC]*d[5mC]*d[5mC]*dT*dG*dG*e[5mC]*e[5mC]*e[5mC]*e[5mC]*eA) [compound 407915] | 83% | – | – |
| 416556 (antisense eA*eT*eA*eG*e[5mC]*dT*dT*dT*dG*dA*dT*d[5mC]*d[5mC]*dA*dA*eT*eG*e[5mC]*eT*e[5mC]) [compound 416556] | – | 53% | – |
| 407627 (antisense eG*e[5mC]*e[5mC]*e[5mC]*eA*dG*d[5mC]*dA*d[5mC]*d[5mC]*dG*d[5mC]*dG*dA*dT*e[5mC]*eA*eG*eG*eT) [compound 407627] | 79% | – | – |
| 416427 (antisense e[5mC]*e[5mC]*e[5mC]*eT*eG*dA*dA*dG*d[5mC]*d[5mC]*d[5mC]*dA*dA*dG*d[5mC]*eA*eG*eA*eA*eG) [compound 416427] | – | 5% | – |
| 422285 (antisense eG*e[5mC]*dA*d[5mC]*dA*d[5mC]*dA*dT*dG*dG*dA*dG*dT*d[5mC]*dA*eG*e[5mC]*eA*eT*e[5mC]) [compound 422285] | – | – | % Inhibition (human Factor 7 mRNA) [5]: 39% |

| Substance | % Inhibition (human Factor 7 mRNA) [1] | % Inhibition of human Factor 7 mRNA levels [3] | also measured |
| --- | --- | --- | --- |
| 422199 (antisense eG*eG*eT*dT*dA*d[5mC]*dT*dG*dA*dG*d[5mC]*dG*d[5mC]*dG*dG*dA*dA*eG*eA*eA) [compound 422199] | – | – | % Inhibition (human Factor 7 mRNA) [4]: 65% |
| 407633 (antisense eG*e[5mC]*eA*eG*eG*d[5mC]*dA*dG*dT*d[5mC]*d[5mC]*dT*dG*dG*dG*eT*e[5mC]*eA*eT*e[5mC]) [compound 407633] | 71% | – | – |
| 416470 (antisense eG*e[5mC]*eT*eT*eT*dT*dG*d[5mC]*dA*dG*d[5mC]*d[5mC]*dA*d[5mC]*dT*e[5mC]*eG*eA*eT*eG) [compound 416470] | – | 39% | – |
| 416534 (antisense eA*eT*eG*e[5mC]*eA*d[5mC]*dA*d[5mC]*d[5mC]*dA*dG*dG*dG*d[5mC]*dT*eG*e[5mC]*eT*eG*eG) [compound 416534] | – | 32% | – |
| 416426 (antisense eA*eG*e[5mC]*e[5mC]*e[5mC]*dA*dA*dG*d[5mC]*dA*dG*dA*dA*dG*dG*e[5mC]*eA*eG*eA*eG) [compound 416426] | – | 34% | – |
| 407904 (antisense eG*eA*eA*eA*e[5mC]*dA*dG*dT*dG*dG*dG*d[5mC]*d[5mC]*dG*d[5mC]*eG*eG*eA*eG*eA) [compound 407904] | 83% | – | – |
| 422247 (antisense eG*e[5mC]*dT*dG*dA*dG*dG*dA*dG*dA*d[5mC]*dA*dA*dT*dG*eG*eT*e[5mC]*eA*eG) [compound 422247] | – | – | % Inhibition of human Factor 7 mRNA levels [2]: 36% |
| 407932 (antisense eG*eA*eA*e[5mC]*e[5mC]*dA*dG*dA*dA*dA*dA*dG*dT*dG*dA*eG*eA*eG*e[5mC]*eT) [compound 407932] | 55% | – | – |
| 416491 (antisense eG*eA*eG*eA*eA*dG*dG*dG*dT*dT*dG*d[5mC]*dA*dG*dG*e[5mC]*eA*eG*eG*eA) [compound 416491] | – | 2% | – |
| 416535 (antisense eG*e[5mC]*eA*eG*eG*dA*dT*dG*d[5mC]*dA*d[5mC]*dA*d[5mC]*d[5mC]*dA*eG*eG*eG*e[5mC]*eT) [compound 416535] | – | 47% | – |
| 407658 (antisense eG*e[5mC]*eT*eT*eG*d[5mC]*d[5mC]*dG*dG*dA*dG*dT*d[5mC]*dT*dG*eA*eG*eT*eG*eG) [compound 407658] | 16% | – | – |
| 416425 (antisense eA*eA*eG*e[5mC]*eA*dG*dA*dA*dG*dG*d[5mC]*dA*dG*dA*dG*eG*eA*eG*e[5mC]*e[5mC]) [compound 416425] | – | 13% | – |
| 422211 (antisense eA*e[5mC]*eA*dG*d[5mC]*dA*d[5mC]*dA*d[5mC]*dA*dT*dG*dG*dA*dG*dT*d[5mC]*eA*eG*e[5mC]) [compound 422211] | – | – | % Inhibition (human Factor 7 mRNA) [5]: 42% |
| 407918 (antisense e[5mC]*e[5mC]*eT*eG*eG*dT*dG*dT*dA*d[5mC]*dA*d[5mC]*d[5mC]*d[5mC]*d[5mC]*eA*eA*eA*eG*eT) [compound 407918] | 72% | – | – |
| 407634 (antisense eG*eT*eG*eA*e[5mC]*dT*dG*d[5mC]*dT*dG*d[5mC]*dA*dG*dG*d[5mC]*eA*eG*eT*e[5mC]*e[5mC]) [compound 407634] | 24% | – | – |
| 422168 (antisense eT*eG*eA*dG*dG*dA*dG*dA*d[5mC]*dA*dA*dT*dG*dG*dT*d[5mC]*dA*eG*eG*eG) [compound 422168] | – | – | % Inhibition of human Factor 7 mRNA levels [2]: 30% |
| 407655 (antisense eA*eG*eA*eG*eT*dG*d[5mC]*dA*dG*d[5mC]*dT*dT*dG*d[5mC]*d[5mC]*eA*eG*eG*eT*e[5mC]) [compound 407655] | 28% | – | – |
| 416440 (antisense eG*eG*eA*e[5mC]*eT*dG*dG*dA*dG*d[5mC]*dT*dG*dG*dT*d[5mC]*e[5mC]*eT*eT*eG*e[5mC]) [compound 416440] | – | 44% | – |
| 407611 (antisense eT*e[5mC]*eT*e[5mC]*eA*d[5mC]*dA*dG*dT*dT*d[5mC]*d[5mC]*dG*dG*d[5mC]*e[5mC]*e[5mC]*eT*e[5mC]*eG) [compound 407611] | 82% | – | – |
| 422125 (antisense e[5mC]*eT*eG*eA*eG*d[5mC]*dG*d[5mC]*dG*dG*dA*dA*dG*dA*dA*eG*eG*eG*eA*e[5mC]) [compound 422125] | – | – | % Inhibition (human Factor 7 mRNA) [4]: 8% |
| 416502 (antisense eG*eT*eT*e[5mC]*eT*dT*dT*dG*dA*dA*dA*dA*dA*dT*dA*eA*eT*e[5mC]*e[5mC]*e[5mC]) [compound 416502] | – | 22% | – |

Source: patent publication US20120214862A1, “MODULATION OF FACTOR 7 EXPRESSION” (ISIS Pharmaceuticals, Inc., priority 2009, published 2012)
